Source: US20100137315A1, “Sphingosine Kinase Inhibitors and Methods of Their Use” (APOGEE BIOTECHNOLOGY CORPORATION, priority 2005, published 2010)

molecular target: T1, recombinant human SK (Homo sapiens, UniProt Q9NYA1); test: Inhibition of recombinant human SK, LC/MS/MS assay; assay type: biochemical; settings: 6 μg/ml compound
T1 construct: glutathione-S-transferase (GST) (N); made in house; host or cells: bacteria (pGEX vector)
Description: An assay for identifying inhibitors of recombinant human SK has been established (French et al., 2003, Cancer Res 63: 5962). cDNA for human SK was subcloned into a pGEX bacterial expression vector, which results in expression of the enzyme as a fusion protein with glutathione-S-transferase, and the fusion protein is then purified on a column of immobilized glutathione. SK activity is measured by incubation of the recombinant SK with [^3H]sphingosine and 1 mM ATP under defined conditions, followed by extraction of the assay mixture with chloroform:methanol under basic conditions. […] Radioactivity in aliquots of the aqueous phase is then quantified as a measure of [^3H]S1P formation. There is a low background level of partitioning of [^3H]sphingosine into the aqueous phase, and addition of the recombinant SK greatly increases the formation of [^3H]S1P.
In an alternate assay procedure, the recombinant human SK was incubated with unlabeled sphingosine and ATP as described above. After 30 minutes, the reactions were terminated by the addition of acetonitrile to directly extract the newly synthesized S1P. The amount of S1P in the samples is then quantified as follows. C17 base D-erythro-sphingosine and C17 S1P are used as internal standards for sphingosine and S1P, respectively. These seventeen-carbon fatty acid-linked sphingolipids are not naturally produced, making these analogs excellent standards. The lipids are then fractionation by High-Performance Liquid Chromatography using a C8-reverse phase column eluted with 1 mM methanolic ammonium formate/2 mM aqueous ammonium formate. A Finnigan LCQ Classic LC-MS/MS is used in the multiple reaction monitoring positive ionization mode to acquire ions at m/z of 300 (precursor ion)→282 (product ion) for sphingosine and 380→264 for S1P. Calibration curves are generated by plotting the peak area ratios of the synthetic standards for each sphingolipid, and used to determine the normalized amounts of sphingosine and S1P in the samples.
Each Compound of this invention was tested for its ability to inhibit recombinant SK using the LC/MS/MS assay described above. Typically, the Compounds were individually dissolved in dimethylsulfoxide and tested at a final concentration of 6 micrograms/ml.

T1 sequence (Q9NYA1 whole entry): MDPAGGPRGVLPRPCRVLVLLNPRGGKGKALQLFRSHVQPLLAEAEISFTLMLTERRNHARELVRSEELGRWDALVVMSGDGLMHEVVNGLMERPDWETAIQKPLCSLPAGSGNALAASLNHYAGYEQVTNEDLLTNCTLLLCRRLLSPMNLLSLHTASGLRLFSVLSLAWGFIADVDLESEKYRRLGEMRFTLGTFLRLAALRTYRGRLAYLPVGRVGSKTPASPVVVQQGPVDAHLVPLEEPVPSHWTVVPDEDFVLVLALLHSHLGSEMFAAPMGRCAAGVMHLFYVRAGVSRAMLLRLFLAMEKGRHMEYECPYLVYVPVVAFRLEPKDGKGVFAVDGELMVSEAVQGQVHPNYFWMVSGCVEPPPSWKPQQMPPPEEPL

Compound	inhibition at 6 µg/mL
C=CCCCCCCCCC(=O)Nc1nc(-c2ccc(Cl)cc2)cs1 [Compound 4, Undec-10-enoic acid [4-(4-chloro-phenyl)-thiazol-2-yl]-amide]	53%
CCCCCCCCC=CCCCCCCCC(=O)Nc1nc(-c2ccc(Cl)cc2)cs1 [Compound 6, Octadec-9-enoic acid [4-(4-chloro-phenyl)-thiazol-2-yl]-amide]	0%
CN(C)c1ccc(CNC(=O)c2nc(-c3ccc(Cl)cc3)cs2)cc1 [Compound 35, 4-(4-Chloro-phenyl)-thiazole-2-carboxylic acid 4-dimethylamino-benzylamide]	80%
O=C(Nc1nnn[nH]1)c1nc(-c2ccc(Cl)cc2)cs1 [Compound 62, 4-(4-Chloro-phenyl)-thiazole-2-carboxylic Acid (1H-tetrazol-5-yl)-amide]	60%
O=C(NCCc1cccc(Oc2ccccc2)c1)c1nc(-c2ccc(Cl)cc2)cs1 [Compound 44, 4-(4-Chloro-phenyl)-thiazole-2-carboxylic acid [2-(3-phenoxy-phenyl)-ethyl]-amide]	69%
CC(NC(=O)c1nc(-c2ccc(Cl)cc2)cs1)c1ccc(Cl)cc1 (stereo not drawn) [Compound 56, 4-(4-Chloro-phenyl)-thiazole-2-carboxylic Acid [1-(4-chloro-phenyl)-ethyl]-amide]	81%
O=C(NCc1cc(F)cc(C(F)(F)F)c1)c1nc(-c2ccc(Cl)cc2)cs1 [Compound 75, 4-(4-Chloro-phenyl)-thiazole-2-carboxylic acid 3-fluoro-5-trifluoromethyl-benzylamide]	3%
CCCC(=O)Oc1ccc(C(=O)Nc2nc(-c3ccc(Cl)cc3)cs2)cc1OC(=O)CCC [Compound 25, Butyric acid 2-butyryloxy-4-[4-(4-chloro-phenyl)-thiazol-2-ylcarbamoyl]-phenyl ester]	0%
COc1ccc(CCNC(=O)c2nc(-c3ccc(Cl)cc3)cs2)cc1Br [Compound 41, 4-(4-Chloro-phenyl)-thiazole-2-carboxylic acid [2-(3-bromo-4-methoxy-phenyl)-ethyl]-amide]	22%
CCCC(=O)Oc1ccc(C=CC(=O)Nc2nc(-c3ccc(F)cc3)cs2)cc1OC [Compound 28, Butyric acid 4-{2-[4-(4-fluoro-phenyl)-thiazol-2-ylcarbamoyl]-vinyl}-2-methoxy-phenyl ester]	87%
Fc1cc(F)cc(COCNc2nc(-c3ccc(Cl)cc3)cs2)c1 [Compound 79, [4-(4-Chloro-phenyl)-thiazol-2-yl]-(3,5-difluoro-benzyloxymethyl)-amine]	53%
O=C(Cc1ccc2c(c1)OCO2)Nc1nc(-c2ccc(Cl)cc2)cs1 [Compound 22, 2-Benzo[1,3]dioxol-5-yl-N-[4-(4-chloro-phenyl)-thiazol-2-yl]-acetamide]	34%
COc1ccc(CCC(=O)Nc2nc(-c3ccc(Cl)cc3)cs2)cc1OC [Compound 23, N-[4-(4-Chloro-phenyl)-thiazol-2-yl]-3-(3,4-dimethoxy-phenyl)-propionamide]	45%
O=C(NCCN1CCOCC1)c1nc(-c2ccc(Cl)cc2)cs1 [Compound 76, 4-(4-Chloro-phenyl)-thiazole-2-carboxylic acid (2-morpholin-4-yl-ethyl)-amide]	51%
O=C(Nc1cc(F)cc(F)c1)c1nc(-c2ccc(Cl)cc2)cs1 [Compound 50, 4-(4-Chloro-phenyl)-thiazole-2-carboxylic Acid (3,5-difluoro-phenyl)-amide]	21%
O=C(NCCc1ccc2c(c1)OCO2)c1nc(-c2ccc(Cl)cc2)cs1 [Compound 64, 4-(4-Chloro-phenyl)-thiazole-2-carboxylic Acid (2-benzo[1,3]dioxol-5-yl-ethyl)-amide]	90%
CCSCCNC(=O)c1nc(-c2ccc(Cl)cc2)cs1 [Compound 48, 4-(4-Chloro-phenyl)-thiazole-2-carboxylic Acid (2-ethylsulfanyl-ethyl)-amide]	56%
O=C(NCc1ccc(-c2ccccc2)cc1)c1nc(-c2ccc(Cl)cc2)cs1 [Compound 55, 4-(4-Chloro-phenyl)-thiazole-2-carboxylic Acid (biphenyl-4-ylmethyl)-amide]	20%
CS(=O)(=O)c1ccc(CNC(=O)c2nc(-c3ccc(Cl)cc3)cs2)cc1 [Compound 63, 4-(4-Chloro-phenyl)-thiazole-2-carboxylic Acid 4-methanesulfonyl-benzylamide]	3%
O=C(Nc1nc(-c2ccc(Cl)cc2)cs1)c1ccc(Cl)cc1Cl [Compound 68, 2,4-Dichloro-N-[4-(4-chloro-phenyl)-thiazol-2-yl]-benzamide]	73%
CC(C)(C)NCCCNC(=O)c1nc(-c2ccc(Cl)cc2)cs1 [Compound 57, 4-(4-Chloro-phenyl)-thiazole-2-carboxylic Acid (3-tert-butylamino-propyl)-amide]	16%
CCCC(=O)Oc1ccc(C=CC(=O)Nc2nc(-c3ccc(C)cc3)cs2)cc1OC [Compound 19, Butyric acid 2-methoxy-4-[2-(4-p-tolyl-thiazol-2-ylcarbamoyl)-vinyl]-phenyl ester]	36%

tested on: MCF-7 human breast adenocarcinoma cells; test: Cytotoxicity, SRB assay, 48 h; assay type: cell-based; settings: Homo sapiens, MCF7; Table 6; 48 h, SRB, inhibition of cell proliferation; read-out: MCF-7 IC50
Description: To further assess the biological efficacies of the Compounds in intact cells, each Compound was evaluated for cytotoxicity using human cancer cell lines. These experiments followed methods that have been extensively used. Cell lines tested included MCF-7 human breast adenocarcinoma cells. The indicated cell lines were treated with varying doses of the test Compound for 48 h. Cell survival was then determined using the SRB binding assay (Skehan et al., 1990, J Natl Cancer Inst 82: 1107), and the concentration of compound that inhibited proliferation by 50% (the IC50) was calculated. Values (in μM) represent the mean±sd for replicate trials.

Compound	IC50
C=CCCCCCCCCC(=O)Nc1nc(-c2ccc(Cl)cc2)cs1 [Compound 4, Undec-10-enoic acid [4-(4-chloro-phenyl)-thiazol-2-yl]-amide]	33 µM
CCCCCCCCC=CCCCCCCCC(=O)Nc1nc(-c2ccc(Cl)cc2)cs1 [Compound 6, Octadec-9-enoic acid [4-(4-chloro-phenyl)-thiazol-2-yl]-amide]	105 µM
CN(C)c1ccc(CNC(=O)c2nc(-c3ccc(Cl)cc3)cs2)cc1 [Compound 35, 4-(4-Chloro-phenyl)-thiazole-2-carboxylic acid 4-dimethylamino-benzylamide]	130 µM
CCCCCCCCCCCCCC(=O)Nc1nc2cc(Cl)ccc2o1 [Compound 91, Tetradecanoic Acid (5-chloro-benzooxazol-2-yl)-amide]	2.6 µM
COc1cc(C=CC(=O)Nc2nc(-c3cccc(Cl)c3)cs2)ccc1O [Compound 9, N-[4-(3-Chloro-phenyl)-thiazol-2-yl]-3-(4-hydroxy-3-methoxy-phenyl)-acrylamide]	7.8 µM
O=C(Nc1nc2cc(Cl)ccc2o1)c1ccccc1[N+](=O)[O-] [Compound 87, N-(5-Chloro-benzooxazol-2-yl)-2-nitro-benzamide]	9.8 µM
CC(=O)Oc1ccc(C=CC(=O)Nc2nc(-c3ccc(Cl)cc3)cs2)cc1 [Compound 12, Acetic acid 4-{2-[4-(4-chloro-phenyl)-thiazol-2-ylcarbamoyl]-vinyl}-phenyl ester]	125 µM
CCCC(=O)Oc1ccc(C=CC(=O)Nc2nc(-c3ccc(Cl)cc3)cs2)cc1OC(=O)CCC [Compound 11, Butyric acid 2-butyryloxy-5-{2-[4-(4-chloro-phenyl)-thiazol-2-ylcarbamoyl]-vinyl}-phenyl ester]	10 µM
O=C(Nc1nc2cc(Cl)ccc2s1)c1ccccc1O [Compound 96, N-(5-Chloro-benzothiazol-2-yl)-2-hydroxy-benzamide]	24 µM
CCCC(=O)Oc1ccc(CC(=O)Nc2nc(-c3ccc(Cl)cc3)cs2)cc1OC(=O)CCC [Compound 17, Butyric acid 2-butyryloxy-5-{[4-(4-chloro-phenyl)-thiazol-2-ylcarbamoyl]-methyl}-phenyl ester]	4 µM
C=CCCCCCCCCC(=O)Nc1nc2cc(Cl)ccc2o1 [Compound 90, Undec-10-enoic acid (5-chloro-benzooxazol-2-yl)-amide]	19 µM
CCCCCCCCCCCCCCCC(=O)Nc1nc2cc(Cl)ccc2o1 [Compound 92, Hexadecanoic Acid (5-chloro-benzooxazol-2-yl)-amide]	7.6 µM
O=C(C=Cc1ccccc1)Nc1nc2cc(Cl)ccc2o1 [Compound 88, N-(5-Chloro-benzooxazol-2-yl)-3-phenyl-acrylamide]	1.3 µM
O=C(C=Cc1ccc([N+](=O)[O-])cc1)Nc1nc2cc(Cl)ccc2o1 [Compound 89, N-(5-Chloro-benzooxazol-2-yl)-3-(4-nitro-phenyl)-acrylamide]	1.2 µM
CCCC(=O)Oc1ccc(CC(=O)Nc2nc(-c3ccc(Cl)cc3)cs2)cc1OC [Compound 16, Butyric acid 4-{[4-(4-chloro-phenyl)-thiazol-2-ylcarbamoyl]-methyl}-2-methoxy-phenyl ester]	5.6 µM
CCCC(=O)Oc1cc(C=CC(=O)Nc2nc(-c3ccc(Cl)cc3)cs2)ccc1OC [Compound 18, Butyric acid 5-{2-[4-(4-chloro-phenyl)-thiazol-2-ylcarbamoyl]-vinyl}-2-methoxy-phenyl ester]	2.7 µM

same assay, conditions: Table 6; 48 h, SRB, inhibition of cell proliferation; read-out: MCF-7 IC50

Compound	IC50
4-(4-Chloro-phenyl)-thiazole-2-carboxylic acid (2-pyridin-4-yl)-amide [Compound 74]	120 µM
